The values below come from patent US6977262B2, “Dihydropyrazolopyridine compounds and pharmaceutical use thereof” (Mitsubishi Pharma Corporation, priority 2001, dated 2005).

Counter-ions that a name gives are not always drawn.

The melting point is the temperature of the solid-liquid transition. In turn, `Cc1ccc(C2=C(C#N)C(c3cccc4nonc34)c3c[nH]nc3N2)s1` (stereo not shown) [Example 299, 4-(2,1,3-Benzoxadiazol-4-yl)-5-cyano-4,7-dihydro-6-(2-methylthiophen-5-yl)-2H-pyrazolo[3,4-b]pyridine] had a melting point of 192 °C. The same measure for `CCCC1=C(C#N)C(c2ccccc2Cl)c2cnn(C(=O)OC(C)(C)C)c2N1` (stereo not shown) [Example 281, 1-tert-Butoxycarbonyl-4-(2-chlorophenyl)-5-cyano-4,7-dihydro-6-propyl-1 H-pyrazolo[3,4-b]pyridine]: 98 to 102 °C; for `CCCC1=C(C#N)C(c2cccnc2)c2c[nH]nc2N1` (stereo not shown) [Example 327, 5-Cyano-4,7-dihydro-6-propyl-4-(pyridin-3-yl)-2H-pyrazolo[3,4-b]pyridine]: 201 °C; for `N#CC1=C(c2cccs2)Nc2n[nH]cc2C1c1ccccc1[N+](=O)[O-]` (stereo not shown) [Example 244, 5-Cyano-4,7-dihydro-4-(2-nitrophenyl)-6-(thiophen-2-yl)-2H-pyrazolo[3,4-b]pyridine]: 165 °C. The same measure for `CNCC1=C(C#N)C(c2cccc3nonc23)c2c[nH]nc2N1.O=C(O)C(F)(F)F` (stereo not shown): 174 °C; for `CCOC(=O)C1=C(c2ccccc2)Nc2n[nH]cc2C1c1ccccc1Cl` (stereo not shown) [Example 85, Ethyl 4-(2-chlorophenyl)-4,7-dihydro-6-phenyl-2H-pyrazolo[3,4-b]pyridine-5-carboxylate]: 214 °C; for `CCCC1=C(C#N)C(c2cccc([N+](=O)[O-])c2Cl)c2c[nH]nc2N1` (stereo not shown) [Example 185, 4-(2-Chloro-3-nitrophenyl)-5-cyano-4,7-dihydro-6-propyl-2H-pyrazolo[3,4-b]pyridine]: 234 to 235 °C. `N#CC1=C(C2CC2)Nc2n[nH]cc2C1c1ccccc1Br` (stereo not shown) [Example 267, 4-(2-Bromophenyl)-5-cyano-6-cyclopropyl-4,7-dihydro-2H-pyrazolo[3,4-b]pyridine] came in with a melting point greater than 250 °C. Consider `N#CC1=C(c2cccc3ccccc23)Nc2n[nH]cc2C1c1cccc2nonc12` (stereo not shown) [Example 169, 4-(2,1,3-Benzoxadiazol-4-yl)-5-cyano-4,7-dihydro-6-(naphthalen-1-yl)-2H-pyrazolo[3,4-b]pyridine], for which the melting point stood at 213 °C. Take `Cl.Cl.Cl.N#CC1=C(CN2CCN(c3ccccc3)CC2)Nc2n[nH]cc2C1c1ccccc1Cl` (stereo not shown): the melting point is 217 to 220 °C (dec.).

`CN1CCC(C2=C(C#N)C(c3ccccc3Cl)c3c[nH]nc3N2)CC1` (stereo not shown) (as salt: trifluoroacetate) [Example 1056, 4-(2-Chlorophenyl)-5-cyano-4,7-dihydro-6-(1-methylpiperidin-4-yl)-2H-pyrazolo[3,4-b]pyridine] gave a melting point greater than 270 °C. The same measure for `CCCC1=C(C(=O)OCC)C(c2c(F)cccc2F)c2c[nH]nc2N1` (stereo not shown) [Example 54, Ethyl 4-(2,6-difluorophenyl)-4,7-dihydro-6-propyl-2H-pyrazolo[3,4-b]pyridine-5-carboxylate]: 185 °C; for `N#CC1=C(C2=CCNCC2)Nc2n[nH]cc2C1c1cccc(C#N)c1Br` (stereo not shown) [Example 1047, 4-(2-Bromo-3-cyanophenyl)-5-cyano-4,7-dihydro-6-(1,2,3,6-tetrahydropyridin-4-yl)-2H-pyrazolo[3,4-b]pyridine]: 226 °C; for `CCCC1=C([N+](=O)[O-])C(c2ccccc2SC)c2c[nH]nc2N1` (stereo not shown) [Example 120, 4,7-Dihydro-4-(2-methylthiophenyl)-5-nitro-6-propyl-2H-pyrazolo[3,4-b]pyridine]: 211 °C. The same measure for `N#CC1=C(c2ccccc2)Nc2n[nH]cc2C1c1cccc2c1OCCC2` (stereo not shown) [Example 148, 5-Cyano-4-(3,4-dihydro-2H-benzopyran-8-yl)-4,7-dihydro-6-phenyl-2H-pyrazolo[3,4-b]pyridine]: 255 °C; for `Cc1ccccc1C1C(C#N)=C(c2ccccc2)Nc2n[nH]cc21` (stereo not shown) [Example 248, 5-Cyano-4,7-dihydro-4-(2-methylphenyl)-6-phenyl-2H-pyrazolo[3,4-b]pyridine]: 246 °C.
